Bounds are passed on as bounds.

What is called EC50 is the concentration that produces a half-maximal response.

Test [1] can be described thus: Inhibition of HIV1 RES056 reverse transcriptase K103N/Y181C double mutant infected in human MT4 cells assessed as protection against virus-induced cytopathic effect measured at 5 days post infection by MTT assay.
Test [2] can be described thus: Inhibition of HIV-1 reverse transcriptase E138K mutant infected in human MT4 cells assessed as protection against virus-induced cytopathic effect measured at 5 days post infection by MTT assay. On the technique in general: Cytopathic effects are the visible damage that an infection or toxin causes in cultured cells.

In the case of `N#Cc1ccc(Nc2nccc(OCc3ccc(Br)cc3)n2)cc1`, the EC50 in test [1] and in test [2] was above 16 µM each time.

As for `N#Cc1ccc(Nc2nccc(OCc3cccc(C(F)(F)F)c3)n2)cc1`, the EC50 in test [1] and in test [2] was above 118 µM throughout.

For the compound `COc1cc(COc2ccnc(Nc3ccc(C#N)cc3)n2)cc(OC)c1`, the values for the 50% effective concentration (EC50) in test [1] and in test [2] were above 44 µM and 0.23 µM, respectively.

On to `N#Cc1ccc(Nc2nccc(OCc3ccc(Br)cc3F)n2)cc1`, for which the EC50 in test [1] is above 141 µM; in test [2], 35.8 µM.

Regarding `N#Cc1ccc(Nc2nccc(OCc3ccccc3C#N)n2)cc1`, the EC50 in test [1] and in test [2] was above 113 µM throughout.

Consider `N#Cc1ccc(Nc2nccc(OCc3cccc(C#N)c3)n2)cc1`, for which the EC50 in test [1] and in test [2] was above 4.1 µM each time.

For `N#Cc1ccc(Nc2nccc(OCc3ccccc3)n2)cc1`, the EC50 was above 13 µM in test [1] and 1.8 µM in test [2].

Turning to `N#Cc1ccc(Nc2nccc(OCc3cccc4ccccc34)n2)cc1`, the EC50 in test [1] is above 7.7 µM; in test [2], 0.3 µM.

On to `N#Cc1ccc(Nc2nccc(OCc3ccc4ccccc4c3)n2)cc1`, for which the values for the EC50 in test [1] and in test [2] were above 212 µM and 10 µM, respectively.

With `N#Cc1ccc(Nc2nccc(NCc3ccccn3)n2)cc1`, the EC50 in test [1] was above 8.5 µM; in test [2], 0.24 µM.

Take `Cc1cc(C)nc(Sc2ccnc(Nc3ccc(C#N)cc3)n2)n1`: the EC50 in test [1] and in test [2] was above 224 µM throughout.

For `N#Cc1ccc(Nc2nccc(OCc3ccccc3Cl)n2)cc1`, the EC50 in test [1] and in test [2] was above 146 µM in each case.

Turning to `N#Cc1ccc(Nc2nccc(OCc3cccc(Cl)c3)n2)cc1`, the EC50 in test [1] and in test [2] was above 153 µM each time.

`N#Cc1ccc(Nc2nccc(OCc3ccccc3Br)n2)cc1`: the EC50 in test [1] and in test [2] was above 130 µM throughout.

For `N#Cc1ccc(Nc2nccc(OCc3cccc(Br)c3)n2)cc1`, the EC50 in test [1] was above 221 µM; in test [2], 5 µM.

For the compound `N#Cc1ccc(Nc2nccc(OCc3ccccc3F)n2)cc1`, the EC50 in test [1] is above 151 µM; in test [2], 0.3 µM.

Turning to `N#Cc1ccc(Nc2nccc(OCc3ccc(F)cc3)n2)cc1`, the EC50 in test [1] and in test [2] was above 81 µM throughout.

On to `Cc1ccccc1COc1ccnc(Nc2ccc(C#N)cc2)n1`, for which the EC50 in test [1] and in test [2] was above 12 µM each time.

Take `Cc1cccc(COc2ccnc(Nc3ccc(C#N)cc3)n2)c1`: the EC50 in test [1] is above 30 µM; in test [2] it was 1.18 µM.

Turning to `COc1ccccc1COc1ccnc(Nc2ccc(C#N)cc2)n1`, the EC50 in test [1] is above 8.9 µM; in test [2] it was 2.1 µM.

For `COc1cccc(COc2ccnc(Nc3ccc(C#N)cc3)n2)c1`, the results for the EC50 in test [1] and in test [2] were above 118 µM and 1.1 µM, respectively.

In the case of `N#Cc1ccc(Nc2nccc(OCc3ccccc3C(F)(F)F)n2)cc1`, the EC50 in test [1] and in test [2] was above 173 µM throughout.

Regarding `N#Cc1ccc(Nc2nccc(OCc3cc(F)ccc3Br)n2)cc1`, the EC50 in test [1] and in test [2] was above 190 µM each time.

Consider `N#Cc1ccc(COc2ccnc(Nc3ccc(C#N)cc3)n2)cc1`, for which the EC50 in test [1] and in test [2] was above 209 µM in each case.

In the case of `CN(C)c1ccnc(Nc2ccc(C#N)cc2)n1`, the EC50 in test [1] and in test [2] was above 34 µM throughout.

On to `N#Cc1ccc(Nc2nccc(OCc3cccc(F)c3)n2)cc1`, for which the EC50 in test [1] was above 105 µM; in test [2], 1.88 µM.

Turning to `Cc1ccc(COc2ccnc(Nc3ccc(C#N)cc3)n2)cc1`, the EC50 in test [1] is above 81 µM; in test [2], 7.2 µM.

Take `COc1ccc(COc2ccnc(Nc3ccc(C#N)cc3)n2)cc1`: the EC50 in test [1] and in test [2] was above 102 µM each time.

Turning to `N#Cc1ccc(Nc2nccc(OCc3cccnc3)n2)cc1`, the EC50 in test [1] and in test [2] was above 6.4 µM throughout.

With `N#Cc1ccc(Nc2nccc(OCc3ccc(Cl)cc3)n2)cc1`, the EC50 in test [1] and in test [2] was above 156 µM throughout.
